Test results published in patent US20100256385A1, “PROSTAGLANDIN E RECEPTOR ANTAGONISTS” (ALLERGAN, INC., priority 2009, published 2010).

Columns and labels:
human osteoclasts = test: Calcium Response in human osteoclasts; assay type: cell-based; settings: for Calcium Response: agonist alone (FIG. 1, FIG. 2)

Structure (SMILES)	melting point [°C]	Block of the Calcium Response initiated by PGE2 (human osteoclasts; response initiated by PGE2 (FIG. 3))	Calcium Response (human osteoclasts)
O=C(CCc1ccc(F)cc1C[C@@H]1[C@H](c2nc(C(=O)NCCCCC3CCCCC3)co2)[C@H]2CC[C@H]1O2)NC(CO)CO [Example 1, N-(1,3-Dihydroxyprop-2-yl)-3-(2-{(1R,2R,3S,4R)-3-[4-(4-cyclohexyl-butylcarbamoyl)-oxazol-2-yl]-7-oxa-bicyclo[2.2.1]hept-2-ylmethyl}-4-fluoro-phenyl)-propionamide]	165 to 166	blocked	–
CCCCC[C@H](O)/C=C/[C@H]1[C@H](O)CC(=O)[C@@H]1C/C=C\CCCC(=O)OCC(O)CO (stereo partly shown) [PG-2 Glycerol Ester]	–	–	induces a Calcium Response
CCCCC[C@H](O)/C=C/[C@H]1[C@H](O)CC(=O)[C@@H]1C/C=C\CCCC(=O)O [PG-2]	–	–	does not cause a Calcium Response
